≈ marks a conversion by molar mass, not a printed value. Read-outs that look alike come from different tables or passages of the source. Where a SMILES comes first, the peptide text is derived from it.
Columns and labels:
Format in all cases: cell-based
[1] = system: Acinetobacter baumannii ATCC 19606; assay: Minimum bactericidal concentration (MBC) determination; settings: ATCC 19606, standard strain
Protocol: (§1) Determination of Minimum Bactericidal Concentration (MBC)
(§2) In order to find out the minimum bactericidal concentration of the antimicrobial peptides of the present disclosure against bacteria, the surface of a suitable culture medium was covered by 100 μL of antimicrobial peptides at the minimal inhibitory concentration determined above with glass beads, then the medium was cultured at 37° C. for 24 hours, thereafter, and observation was conducted for 3 days. When no colony grew, it is the indication that the bacteria have been killed.
(§3) Acinetobacter baumannii strains used in the examples in the conduction of the minimal inhibitory concentration and the minimum bactericidal concentration tests are shown in Table 2.

[2] = system: Acinetobacter baumannii ATCC 17978; assay: as above; settings: ATCC 17978, standard strain
Protocol: as §1, §2, §3

[3] = system: Acinetobacter baumannii 39181
Protocol: (§4) Determination of Minimal Inhibitory Concentration (MIC)
(§5) In order to test the inhibitory effect of the antimicrobial peptides of the present disclosure, broth microdilution test was conducted to determine the minimal inhibition concentration (MIC) of the antimicrobial peptides against bacteria. The MIC represents the minimal concentration of the peptide which has the ability to inhibit bacteria growth completely.
as §3

[4] = system: Acinetobacter baumannii 39400
Protocol: as §4, §5, §3

[5] = system: Acinetobacter baumannii ATCC 17978CR; settings: colistin-resistant
Protocol: as §4, §5, §3

[6] = system: Acinetobacter baumannii 44820
Protocol: as §4, §5, §3

[7] = system: Acinetobacter baumannii BCRC 80276
Protocol: as §4, §5, §3

[8] = system: Acinetobacter baumannii ATCC 19606CR; settings: colistin-resistant
Protocol: as §4, §5, §3

[9] = system: Acinetobacter baumannii ATCC 19606; assay: Broth microdilution MIC; settings: ATCC 19606, standard strain
Protocol: as §4, §5, §3

[10] = system: Acinetobacter baumannii ATCC 17978; assay: Broth microdilution MIC; settings: ATCC 17978, standard strain
Protocol: as §4, §5, §3

[11] = system: Acinetobacter baumannii 39181; remark: listed apart in the source
Protocol: as §1, §2, §3

[12] = system: Acinetobacter baumannii 39400; remark: listed apart in the source
Protocol: as §1, §2, §3

[13] = system: Acinetobacter baumannii ATCC 17978CR; settings: colistin-resistant; remark: listed apart in the source
Protocol: as §1, §2, §3

[14] = system: Acinetobacter baumannii 44820; remark: listed apart in the source
Protocol: as §1, §2, §3

[15] = system: Acinetobacter baumannii BCRC 80276; remark: listed apart in the source
Protocol: as §1, §2, §3

[16] = system: Acinetobacter baumannii ATCC 19606CR; settings: colistin-resistant; remark: listed apart in the source
Protocol: as §1, §2, §3

[17] = system: Acinetobacter baumannii; assay: Scanning electron microscope observation of bacterial destruction; settings: 80 μM peptide, 1×10^9 CFU bacteria, 37° C., 1 hour
[18] = system: Acinetobacter baumannii; assay: MBC determination
Protocol: as §1, §2

[19] = system: Acinetobacter baumannii; assay: Broth microdilution MIC, summary in text
Protocol: as §4, §5

[20] = BCRC 80276, multidrug-resistant
[21] = Acinetobacter baumannii, summary of Table 3
[22] = multidrug-resistant Acinetobacter baumannii

Row | SMILES | Minimum Bactericidal Concentration (MBC) [1] | Minimum Bactericidal Concentration (MBC) [2] | Minimal Inhibitory Concentration (MIC) ([3]; 39181, multidrug-resistant) | Minimal Inhibitory Concentration (MIC) ([4]; 39400, multidrug-resistant) | Minimal Inhibitory Concentration (MIC) [5] | Minimal Inhibitory Concentration (MIC) ([6]; 44820, multidrug-resistant) | Minimal Inhibitory Concentration (MIC) [7, 20] | Minimal Inhibitory Concentration (MIC) [8] | Minimal Inhibitory Concentration (MIC) [9] | Minimal Inhibitory Concentration (MIC) [10] | Minimum Bactericidal Concentration (MBC) ([11]; 39181, multidrug-resistant) | Minimum Bactericidal Concentration (MBC) ([12]; 39400, multidrug-resistant) | Minimum Bactericidal Concentration (MBC) [13] | Minimum Bactericidal Concentration (MBC) ([14]; 44820, multidrug-resistant) | Minimum Bactericidal Concentration (MBC) [15, 20] | Minimum Bactericidal Concentration (MBC) [16] | appearance of bacteria under scanning electron microscope [17] | minimum bactericidal concentration [18, 21] | minimal inhibitory concentration [19, 21] | other results
1 | CC[C@H](C)[C@H](NC(=O)[C@H](C)NC(=O)[C@H](CCCCN)NC(=O)[C@H](CCC(N)=O)NC(=O)[C@@H](NC(=O)[C@H](C)NC(=O)[C@@H](NC(=O)[C@H](CC(C)C)NC(=O)[C@H](CCCCN)NC(=O)[C@H](CCC(=O)O)NC(=O)[C@H](CC(C)C)NC(=O)[C@H](C)NC(=O)[C@H](CCCCN)NC(=O)[C@@H](N)CCC(=O)O)[C@@H](C)CC)[C@@H](C)CC)C(=O)N[C@@H](CCCCN)C(=O)NCC(=O)N[C@@H](CCSC)C(=O)N[C@@H](CC(C)C)C(=O)N[C@@H](CC(N)=O)C(=O)NCC(=O)N[C@@H](Cc1c[nH]c2ccccc12)C(=O)N[C@@H](Cc1ccccc1)C(=O)N[C@H](C(=O)NCC(=O)N[C@H](C(=O)N[C@@H](Cc1ccccc1)C(=O)N[C@@H](CCCNC(=N)N)C(=O)N[C@@H](CCCNC(=N)N)C(=O)N[C@@H](CCCCN)C(=O)N[C@@H](CCCNC(=N)N)C(=O)O)C(C)C)[C@@H](C)O [LysAB2 113-145 G1] (H-EKALEKLIAIQKAIKGMLNGWFTGVFRRKR-OH; N-terminus and C-terminus assumed) | 8 µM | 8 µM | 8 µM | 8 µM | 16 µM | 8 µM | 8 µM | 16 µM | 8 µM | 8 µM | 8 µM | 8 µM | 16 µM | 8 µM | 8 µM | 16 µM |  |  |  | 
2 | CC[C@H](C)[C@H](NC(=O)[C@H](C)NC(=O)[C@H](CCCCN)NC(=O)[C@H](CCC(N)=O)NC(=O)[C@@H](NC(=O)[C@H](C)NC(=O)[C@@H](NC(=O)[C@H](CC(C)C)NC(=O)[C@H](CCCCN)NC(=O)[C@H](CCC(=O)O)NC(=O)[C@H](CC(C)C)NC(=O)[C@H](C)NC(=O)[C@H](CCCCN)NC(=O)[C@@H](N)CCC(=O)O)[C@@H](C)CC)[C@@H](C)CC)C(=O)N[C@@H](CCCCN)C(=O)NCC(=O)N[C@@H](CCSC)C(=O)N[C@@H](CC(C)C)C(=O)N[C@@H](C)C(=O)NCC(=O)N[C@@H](Cc1c[nH]c2ccccc12)C(=O)N[C@@H](Cc1ccccc1)C(=O)N[C@H](C(=O)NCC(=O)N[C@H](C(=O)N[C@@H](C)C(=O)N[C@@H](CCCNC(=N)N)C(=O)N[C@@H](CCCNC(=N)N)C(=O)N[C@@H](CCCCN)C(=O)N[C@@H](CCCNC(=N)N)C(=O)O)C(C)C)[C@@H](C)O [LysAB2 113-145 G3] (H-EKALEKLIAIQKAIKGMLAGWFTGVARRKR-OH) | 16 µM | 16 µM |  |  | 16 µM |  |  | 16 µM | 16 µM | 16 µM |  |  | 32 µM |  |  | 32 µM |  |  |  | Minimal Inhibitory Concentration (MIC) [3]; 39181: 16 µM; Minimal Inhibitory Concentration (MIC) [4]; 39400: 16 µM; Minimal Inhibitory Concentration (MIC) [6]; 44820: 16 µM; Minimal Inhibitory Concentration (MIC) ([7]; BCRC 80276): 16 µM; Minimum Bactericidal Concentration (MBC) [11]; 39181: 16 µM; Minimum Bactericidal Concentration (MBC) [12]; 39400: 16 µM; Minimum Bactericidal Concentration (MBC) [14]; 44820: 16 µM; Minimum Bactericidal Concentration (MBC) ([15]; BCRC 80276): 16 µM
3 | CC[C@H](C)[C@H](NC(=O)[C@H](C)NC(=O)[C@H](CCCCN)NC(=O)[C@H](CCC(N)=O)NC(=O)[C@@H](NC(=O)[C@H](C)NC(=O)[C@@H](NC(=O)[C@H](CC(C)C)NC(=O)[C@H](CCCCN)NC(=O)[C@H](CCC(=O)O)NC(=O)[C@H](CC(C)C)NC(=O)[C@H](C)NC(=O)[C@H](CCCCN)NC(=O)[C@H](CCC(=O)O)NC(=O)[C@@H]1CCCN1C(=O)[C@@H](N)CC(N)=O)[C@@H](C)CC)[C@@H](C)CC)C(=O)N[C@@H](CCCCN)C(=O)NCC(=O)N[C@@H](CCSC)C(=O)N[C@@H](CC(C)C)C(=O)N[C@@H](CC(N)=O)C(=O)NCC(=O)N[C@@H](Cc1c[nH]c2ccccc12)C(=O)N[C@@H](Cc1ccccc1)C(=O)N[C@H](C(=O)NCC(=O)N[C@H](C(=O)NCC(=O)N[C@@H](Cc1ccccc1)C(=O)N[C@@H](CCCNC(=N)N)C(=O)N[C@@H](CCCNC(=N)N)C(=O)N[C@@H](CCCCN)C(=O)N[C@@H](CCCNC(=N)N)C(=O)O)C(C)C)[C@@H](C)O [LysAB2 113-145 G4] (H-NPEKALEKLIAIQKAIKGMLNGWFTGVGFRRKR-OH; N-terminus and C-terminus assumed) | 4 µM |  | 4 µM | 4 µM | 8 µM | 4 µM | 4 µM | 8 µM | 4 µM |  | 4 µM | 4 µM | 8 µM | 4 µM | 4 µM | 8 µM | incomplete surface and holes thereon | 4 µM (≈ 15.1 µg/mL) | 4 µM (≈ 15.1 µg/mL) | minimum bactericidal concentration [18, 22]: 4 µM (≈ 15.1 µg/mL); minimal inhibitory concentration [19, 22]: 4 µM (≈ 15.1 µg/mL)
4 | CC[C@H](C)[C@H](NC(=O)[C@H](C)NC(=O)[C@@H](NC(=O)[C@H](CCC(N)=O)NC(=O)[C@@H](NC(=O)[C@H](C)NC(=O)[C@@H](NC(=O)[C@H](CC(C)C)NC(=O)[C@@H]1CCCN1C(=O)[C@H](CCC(=O)O)NC(=O)[C@H](CC(C)C)NC(=O)[C@H](C)NC(=O)[C@H](CCCCN)NC(=O)[C@H](CCC(=O)O)NC(=O)[C@@H]1CCCN1C(=O)[C@@H](N)CC(N)=O)[C@@H](C)CC)[C@@H](C)CC)[C@@H](C)CC)C(=O)N[C@@H](CCCCN)C(=O)NCC(=O)N[C@@H](CCSC)C(=O)N[C@@H](CC(C)C)C(=O)N[C@@H](CC(N)=O)C(=O)NCC(=O)N[C@@H](Cc1c[nH]c2ccccc12)C(=O)N[C@@H](Cc1ccccc1)C(=O)N[C@H](C(=O)NCC(=O)N[C@H](C(=O)NCC(=O)N[C@@H](Cc1ccccc1)C(=O)N[C@@H](CCCNC(=N)N)C(=O)N[C@@H](CCCNC(=N)N)C(=O)N[C@@H](CCCCN)C(=O)N[C@@H](CCCNC(=N)N)C(=O)O)C(C)C)[C@@H](C)O [LysAB2 113-145] (H-NPEKALEPLIAIQIAIKGMLNGWFTGVGFRRKR-OH; N-terminus and C-terminus assumed) | 64 µM |  | 64 µM | 64 µM | 64 µM | 64 µM | 64 µM | 64 µM | 64 µM |  | 64 µM | 64 µM | 64 µM | 64 µM | 64 µM | 64 µM | surface of the bacterial body is incomplete and has holes thereon, even is broken | 64 µM (≈ 238 µg/mL) | 64 µM (≈ 238 µg/mL) | 

Reference: patent US20170064965A1, “ANTIMICROBIAL PEPTIDES DERIVED FROM PHAGE OF ACINETOBACTER BAUMANNII AND USE THEREOF” (Hualien Tzu Chi Hospital, Buddhist Tzu Chi Medical …, priority 2015, published 2017)
